Test [1] addresses T1, Aβ40 (Homo sapiens, UniProt P05067).
T1 construct: mouse 6e10 primary antibody which recognizes the first 16 amino acids of Aβ1-40
The test can be described thus: Thioflavin T (ThT) assay of Aβ40 aggregation. It counts as biochemical.
Method: Aggregation control (100%) is set as the change of fluorescence of 2.5 μM Aβ40 in Tris (pH 7.5) buffer. The concentration of ThT is 5 μM. Excitation: 440 nm; emission: 482 nm. These two sequences were investigated for their capability to inhibit the aggregation of Aβ40 by ThT assay. […] Compounds in different concentrations in Tris buffer Saline (TBS, pH 7.5) containing 10 μM ThT were added into a black 96 well plate corning@3721. Aβ40 monomer was freshly thawed and used to make a stock solution in TBS with a concentration of 5 μM. Equal volume of Aβ solution was added into the 96 well palate (final Aβ concentration was 2.5 μM). Time-dependent fluorescence change was monitored by a Synergy 2 plate reader at an excitation wavelength of 440 nm and emission at 482 nm. After 24 h, the fluorescence change was recorded. 100% aggregation is the fluorescence change of 2.5 μM Aβ40 in TBS buffer containing 5 μM ThT.

Test [2] has as its target T1, Aβ40. The test can be described thus: Transmission electron microscopy (TEM) of Aβ40 fibrils. The class given is biochemical. The conditions noted are these: HW-155-1 5 μM, 24 h. How it is done: FIGS. 15A-15D are TEM images illustrating monomeric Aβ40 in the absence (FIG. 15A) and presence (FIG. 15B) of HW-155-1 after 24 h and pre-aggregated Aβ40 in the absence (FIG. 15C) and presence (FIG. 15D) of HW-155-1 after 24 h. Bar=[…]; Aβ40 is 2.5 μM; and HW-155-1 is 5 μM. The ability of HW-155-1 to prevent Aβ aggregation was further confirmed by TEM (FIGS. 15A and 15B). In fact, HW-155-1 can even disassemble pre-formed Aβ fibrils (FIGS. 15C and 15D). In these experiments, the Aβ fibrils were not seen for 24 h after incubating HW-155-1 with Aβ40 monomers (prevention of aggregation) and pre-formed Aβ40 aggregates (disassembling aggregation). Aβ40 preparations were adsorbed onto 200-mesh copper grids for 1 hour (until it is dry), and then stained with 1% uranyl acetate for 20 sec. The excess fluid was removed and the grids were analyzed with FEI Morgagni 268D TEM operated at 60 kV.

For a further test, the target named is T2, Aβ40 peptide (Homo sapiens, UniProt P05067).
T2 construct: mouse 6e10 primary antibody which recognizes the first 16 amino acids of Aβ1-40
T2 sequence (P05067 672-711 limits assumed): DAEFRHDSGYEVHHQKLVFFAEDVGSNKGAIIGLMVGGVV
Briefly: On-bead screening of OBOC γ-AApeptide library against Aβ40 peptide. The class given is binding. The conditions noted are these: Aβ40 20 ug/mL, 6e10 antibody, anti-mouse IgG-dylight 549. As for the experimental part:
The γ-AApeptide library was screened to identify ligands that can bind to Aβ. The anti-aggregation efficiency of identified ligands was determined by functional assay afterwards. Thus, beads were incubated with the Aβ40 peptide, followed by the treatment of anti-Aβ antibody 6E10 (FIG. 10). Then, anti-mouse IgG-dylight 549 conjugate was added. Dylight 549 produces strong orange fluorescence, a region in which TentaGel beads have low background fluorescence (see Aquino, C. supra, 4, which is incorporated by reference herein regarding properties of TentaGel beads). The dye is also much less expensive than quantum dots. […]
In order to avoid any possible nonspecific binding, both the Aβ and antibodies solution were made in 1% BSA/TBST blocking buffer. […] The beads were washed with PBST completely and transferred into a 6-well plate to be observed under Zeiss inverted fluorescence microscope 10×43HE filter, and the orange bright beads were picked up for they had suspicious nonspecific binding.
The rest of the beads were pulled together, washed with PBST, and then treated with 1% SDS at 90° C. for ten minutes to remove any bound proteins. […] After washing and equilibrating in TBST overnight, the beads were ready for actual Aβ screening. […]
The beads were collected and washed with 1×PBST three times. […] Washed with water, DMSO, and acetonitrile, beads were then cleaved and analyzed using previous procedure. […]

The test system of the next test is N2a neuroblastoma cells. Briefly: MTT toxicity assay: Aβ42 aggregates on N2a cells. The class given is cell-based. The conditions noted are these: final Aβ 1 μM, 24 h. How it is done: FIG. 16 is a bar graph illustrating detoxification of Aβ42 aggregates by HW-155-1. N2a cells were cultured with 1 μM of pre-aggregated Aβ42 in the absence/presence of HW-155-1 for 24 h.
The effect of HW-155-1 on the toxicity of Aβ aggregates towards N2a neuroblastoma cells was then examined. […] In contrast, pre-incubation of 0.5 equiv. of HW-155-1 with Aβ42 reduces the death of N2a cells to 25%, while the presence of 1 equiv.
In siliconized tubes, Aβ42 peptide of 10 μM (in F-12 medium) were pre-incubated with 0, 0.5 and 1 equiv. HW-155-1 AApeptide, respectively. These solutions were incubated on rotating shaker (Barnstead 400100) at 8 rpm in 37° C. for 24 h. Meanwhile, N2a cells were plated in 96-well plates (10000 cells/well) with triple replications for 24 h. Then pre-aggregated mixtures were added into each well to make the final Aβ concentration at 1 μM. The plate was incubated for another 24 h. Next, 10 μL MTT reagent was added to the cells. The plate was incubated for 4 h at 37° C. After the addition of 100 μL solubilization solution and incubation overnight, OD values were read at 575 nm. The final cell viability was calculated as: Cell viability %=(OD575−OD blank)/(ODctrl−OD blank)×100%.
(Tetrazolium assays rely on reduction of a dye to a coloured formazan, in cell work by metabolically active cells.)

T1 sequence (P05067 672-711 limits assumed): as above

With `C=CCOC(=O)N(CC(=O)N[C@@H](Cc1ccccc1)CN(CC(=O)N[C@@H](CCCCN)CN(CC(=O)N[C@@H](CC(C)C)CN(CC(N)=O)C(=O)CC(C)C)C(=O)CC(C)C)C(=O)CCc1ccccc1)C[C@@H](N)CCCCN` [HW-155-1], the inhibition at 1 µM at Aβ40 [1] (1 μM compound, 2.5 μM Aβ40, first 2 h of incubation (FIG. 14B), read-out: inhibition of Aβ aggregation) was approximately 50%. The “potency relative to KLVFF” value at Aβ40 [1] (ThT assay, Aβ40) was “at least 100 fold”. The “Aβ fibrils by TEM, prevention of aggregation” value at Aβ40 [2] (Aβ40 monomers 2.5 μM) is “not seen”. Besides, the “Aβ fibrils by TEM, disassembling aggregation” value on Aβ40 [2] (pre-formed Aβ40 aggregates 2.5 μM) is on record as “not seen”. Also, the “on-bead binding to Aβ40 (screening outcome)” value at Aβ40 peptide is “hit”. For the same compound, the “death of N2a cells” value with N2a neuroblastoma cells (0.5 equiv. compound pre-incubated with Aβ42, Aβ42 alone kills 30%) is 25%. Also, the “toxicity of Aβ42 / death of N2a cells” value with N2a neuroblastoma cells (1 equiv. compound pre-incubated with Aβ42) is recorded as “almost completely removes the toxicity”.

What is called inhibition is the share of the control response that was lost under treatment.

The values above are taken from patent US10022420B2, “Methods of synthesizing γ-AApeptides, γ-AApeptide building blocks, γ-AApeptide libraries, and γ-AApeptide inhibitors of Aβ40 aggregates” (UNIVERSITY OF SOUTH FLORIDA, priority 2013, dated 2018).
